# From patent publication US20240156965A1, “DICHALCOGENIDE PRODRUGS” (Ludwig-Maximilians-Universitat Munchen, priority 2021, published 2024)
# Entries after “also recorded” stand apart in the source; their conditions may differ.
# Key:
# [1] = molecular target: T1, TrxR1 (Homo sapiens, UniProt Q16881); assay: Cellular quantitative HTS for TrxR1 inhibitors using P6 (LOPAC1280); type: cell-based; conditions: for activity / hit status in cellular P6 screen: hits classed up to 20 μM; for pIC50 comparison between BAY 11-7085 and BAY 11-7082: despite ca. 1.1 Log P difference
# T1 construct: endogenous in cells
# T1 sequence (Q16881 151-649 limits assumed): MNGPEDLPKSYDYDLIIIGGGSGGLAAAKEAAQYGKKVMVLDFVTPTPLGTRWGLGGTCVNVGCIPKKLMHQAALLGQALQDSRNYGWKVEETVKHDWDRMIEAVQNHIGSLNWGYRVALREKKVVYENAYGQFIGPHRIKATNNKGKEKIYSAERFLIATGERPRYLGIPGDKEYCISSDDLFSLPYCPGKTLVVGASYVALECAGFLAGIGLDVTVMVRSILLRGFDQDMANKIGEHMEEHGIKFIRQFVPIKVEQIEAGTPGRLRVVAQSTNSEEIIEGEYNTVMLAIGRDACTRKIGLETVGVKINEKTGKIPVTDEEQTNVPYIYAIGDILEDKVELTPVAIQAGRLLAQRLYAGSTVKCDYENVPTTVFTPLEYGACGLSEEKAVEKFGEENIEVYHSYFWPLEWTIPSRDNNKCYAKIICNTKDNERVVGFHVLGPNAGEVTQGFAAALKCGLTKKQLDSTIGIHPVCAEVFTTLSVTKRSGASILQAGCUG
# Source text: The stability and constant environment of P6's signal (crystallising fluorophore, protected from interferences), its low background (ESIPT quenched probe) and low crosstalk (high Stokes shift), and its ability to directly generate a readout, were promising features. We therefore set out to develop the first cellular quantitative HTS (qHTS) assay for TrxR1 inhibitors, using P6, and performing pilot screening with the 1280-compound LOPAC1280 library. LOPAC is intended to cover drugs and drug-like scaffolds with much comparative data on target selectivity, potency, cellular and in vivo bioactivity, without focus on any particular mechanism of action. The LOPAC library was used in the only previously reported qHTS enzymatic TrxR assay (in 2011), and there is 82% overlap in composition between the 2011 and 2021 version (Prast-Nielsen, S. et al., Free Radical Biology and Medicine 50, 1114-1123 (2011)).
# Cellular screening using P6, optimized for HTS with 1536-well plates (assay volume 6 μL, 500 cells/well) over 4 h run-time, reproduced the strong performance seen in 96-well format. Untreated vs no-cell controls gave a 7-fold raw signal to background ratio [S:B] without background compensation, with a high Z′ value of 0.64, suitable for HTS (FIG. 5a). P6 signal was linear over the assay time, and linearly reflected turnover rate (varied P6 concentration or cell count; FIG. 5b). Pre-incubating cells for 1 h with reference inhibitors prior to P6 gave concentration-dependent inhibition consistent with reported values (FIG. 5c).
# A LOPAC1280 screen using this assay protocol performed well (Z′=0.63, S:B 7:1). Compounds with apparent toxicity within the assay time were excluded by a separate viability counter-assay. Moderate cut-off criteria (IC50<20 μM and curve form) gave a <1.5% hit rate (18 of 1278 compounds, plus TRi-1 and TRi-2; FIG. 5d). […] Matching expectations, with the exception of auranofin, none of these species approached the potency of TRi-1 (Stafford, W. C. et al., Sci. Transl. Med. 10, eaaf7444 (2018)).
# [2] = test system: TrxR; conditions: cell-free; cited from earlier work
# [3] = molecular target: T2, TrxR (Rattus norvegicus, UniProt O89049); conditions: cited from earlier work
# T2 sequence (O89049 1-499): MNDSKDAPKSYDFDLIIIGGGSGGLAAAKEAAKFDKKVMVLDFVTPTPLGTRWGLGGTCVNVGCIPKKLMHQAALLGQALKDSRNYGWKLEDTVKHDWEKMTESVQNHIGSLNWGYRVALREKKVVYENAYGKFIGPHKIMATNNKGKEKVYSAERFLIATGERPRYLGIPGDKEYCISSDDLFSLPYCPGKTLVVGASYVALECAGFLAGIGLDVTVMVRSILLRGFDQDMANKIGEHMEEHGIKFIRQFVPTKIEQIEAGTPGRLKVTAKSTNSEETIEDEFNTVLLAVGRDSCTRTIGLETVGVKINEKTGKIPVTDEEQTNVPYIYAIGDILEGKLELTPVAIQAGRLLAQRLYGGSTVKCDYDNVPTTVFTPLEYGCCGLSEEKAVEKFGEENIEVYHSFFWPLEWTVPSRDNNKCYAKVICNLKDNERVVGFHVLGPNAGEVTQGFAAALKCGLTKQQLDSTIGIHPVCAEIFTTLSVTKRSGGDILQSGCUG
# [4] = Challenge with monothiol reductant GSH, cell-free fluorogenic cargo release; type: physicochemical; conditions: 10 μM probe; for sensitivity to GSH in GSH titration, signal F/F^TCEP: 3 h timepoint, GSH up to 10 mM; for resistance to GSH-triggered release of fluorescent cargo PQ-OH (timecourse): supraphysiological GSH 10 mM, TE buffer pH 7.4, 37 °C; for cargo release when challenged with GSH / GSH system reductants: relevant cellular levels
# Source text: (§1) This cell-free assay examined the stability of dichalcogenide-based reduction-triggered compounds of the invention when exposed to cellular monothiol reductant GSH, and its cellular partner reductants glutathione reductase (GR) and glutaredoxins (Grx1 and Grx2).
# (§2) Assay Conditions: A black 96-well plate with black bottom was charged with solutions of fluorophore-releasing reduction-triggered probes that are compounds of the invention (P1, P2, P3, P6 and P7) or that are not compounds of the invention and reveal the performance of prior art systems (disulfide X26), reaching 100 μL final volume, 1% final DMSO, 10 μM probe, aq. TE buffer (pH 7.4), with the indicated concentrations of reductant (in FIG. 1a) or concentration ratios of reductant to probe (in FIG. 1b-d). TCEP (100 μM) was used as a quantitative reference reductant; and in the GR/GSH/Grx assays (FIG. 1c-d), GR was used at 20 nM, GSH at 100 μM, to maintain Grx in a reduced state suitable for challenging the probes without supplying a high concentration of either GSH or GR. Reaction mixtures were incubated at 37° C. for up to 6 h while measuring fluorescence intensity F over time, using a BMG Labtech FLUOstar Omega platereader (λexc=355 nm, λem=530 nm).
# (§3) Data Representation: F^TCEP is the maximum possible fluorescence increase, corresponding to complete reduction-triggered cargo release by the TCEP incubation. F/F^TCEP thus gives the fluorescence intensity, as a fraction of the maximum possible fluorescence signal, at the indicated times.
# [5] = test system: glutaredoxins (Grx1 and Grx2) with GR and GSH; assay: Challenge with GR/GSH/Grx system reductants, cell-free; type: biochemical; conditions: 10 μM probe, GR 20 nM, GSH 100 μM, Grx1 or Grx2 up to physiological concentrations
# Source text: as §1, §2, §3
# [6] = molecular target: T3, human recombinant thioredoxin reductase 1 (TrxR1) (Homo sapiens, UniProt Q16881); assay: Enzymatic activation assay with TrxR1, cell-free; type: biochemical; conditions: 10 μM probe, 20 nM TrxR1, 100 μM NADPH, 37 °C
# T3 sequence (Q16881 1-499 isoform Q16881-5): T1 sequence (Q16881 151-649 limits assumed)
# Experimental: This cell-free assay (see FIG. 2) examined the processing of dichalcogenide-based fluorophore-releasing reduction-triggered probes that are compounds of the invention, by components of the cellular thioredoxin system.
# Assay conditions and data representation: A black 96-well plate with black bottom was charged with solutions of probes (P1, P2, P3, P6, P7) to reach final reaction conditions: 100 μL of aq. TE buffer (pH 7.4), 10 μM probe concentration, 1 vol % DMSO, and 20 nM of human recombinant thioredoxin reductase 1 (TrxR1; in FIG. 1a), or 20 nM of either TrxR1 or thioredoxin reductase Sec498Cys mutant (TrxR1 U498C or “mut”; in FIG. 1b), or the indicated probe-to-reductant concentration ratios of TrxR1 (in FIG. 1c) or human recombinant thioredoxin 1 (Trx1; in FIG. 1d); with the final step being the addition of NADPH (100 μM final). The reaction mixtures were incubated at 37° C. for 3 to 6 h as shown with timecourse measurements of fluorescence as for FIG. 1. Data representation as for FIG. 1.
# [7] = test system: HeLa cervical cancer cell line; assay: Cellular reduction assay in HeLa cells (fluorescence timecourse); type: cell-based, human; conditions: time- and dose-dependence
# Experimental: Assay Conditions: Cells were cultured under standard conditions (Gao, L. et al. Cell Chemical Biology 2021, 28, 1-14. https://doi.org/10.1016/j.chembiol.2020.11.007), left to adhere for 24 h, then compounds were added to 100 μM with 1% vol DMSO. Fluorescence timecourse measurements were acquired as in the chemoreductant assay, with all conditions in triplicates.
# Data Representation: F.I.(t) is the fluorescence intensity signal increase as compared to time zero signal (fluorescence intensity immediately following compound addition, before probe activation could occur), in arbitrary units although with the same detection settings for all probes releasing the same cargo. This corresponds to reduction-triggered cargo release.
structure (smiles),measurement,setting,value
NC1(C(=O)O)CCc2cc(C(=O)O)ccc21 (stereo not drawn) [AIDA],activity / hit status in cellular P6 screen,[1],non-obvious hit
Cc1ccc(S(=O)(=O)/C=C/C#N)cc1 [BAY 11-7082],pIC50 comparison between BAY 11-7085 and BAY 11-7082,[1],no change
CC(C)(C)c1ccc(S(=O)(=O)/C=C/C#N)cc1 [BAY 11-7085],pIC50 comparison between BAY 11-7085 and BAY 11-7082,[1],no change
CN(N=O)c1cc(O)ccc1O [Dephostatin],ratio of cell-free to cellular potency (potency loss in cells),[1]; shared hits of cellular and cell-free qHTS,> 10 fold
OC1C[Se][Se]CC1O (stereo not drawn) [E3],reduction by TrxR in vitro,[2],processed by TrxR
NC1CC[Se][Se]C1 (stereo not drawn) [E4],reduction by TrxR in vitro,[2],resistant to TrxR
Oc1ccc2ccccc2c1SSc1c(O)ccc2ccccc12 [IPA-3],activity / hit status in cellular P6 screen,[1],active in the cellular screen
same,activity in enzymatic (cell-free) TrxR screen,[3],inactivity in the enzymatic assay
CN(C(=O)Oc1ccc(Cl)cc1-c1nc2ccc(Cl)cc2c(=O)[nH]1)C1CCS[Se]C1 (stereo not drawn) [P1],"sensitivity to GSH in GSH titration, signal F/F^TCEP",[4],completely insensitive
same,resistance to GSH-triggered release of fluorescent cargo PQ-OH (timecourse),[4],entirely
same,cargo release when challenged with GSH / GSH system reductants,[4],totally resisted releasing cargo
CN(C(=O)Oc1ccc(Cl)cc1-c1nc2ccc(Cl)cc2c(=O)[nH]1)C1CC[Se]SC1 (stereo not drawn) [P2],"sensitivity to GSH in GSH titration, signal F/F^TCEP",[4],very low sensitivity
same,resistance to GSH-triggered release of fluorescent cargo PQ-OH (timecourse),[4],majorly
same,cargo release when challenged with GSH / GSH system reductants,[4],high resistance to GSH challenge
same,triggering by GR/GSH/Grx systems,[5],total resistance to Grx challenge
CN(C(=O)Oc1ccc(Cl)cc1-c1nc2ccc(Cl)cc2c(=O)[nH]1)C1CC[Se][Se]C1 (stereo not drawn) [P3],"sensitivity to GSH in GSH titration, signal F/F^TCEP",[4],completely insensitive
same,resistance to GSH-triggered release of fluorescent cargo PQ-OH (timecourse),[4],entirely
same,cargo release when challenged with GSH / GSH system reductants,[4],totally resisted releasing cargo
same,cargo release on exposure to TrxR1 (timecourse),[6],stable to this challenge; also recorded: nonresponsive to TrxR
"CN1CCN(C(=O)CCN(C(=O)Oc2ccc(Cl)cc2-c2nc3ccc(Cl)cc3c(=O)[nH]2)C2CCCCC2)CC1 [X28, reference compound]",fluorescence signal generation F.I.(t) in HeLa cells,[7],does not generate signal; also recorded: did not generate signal
OC[C@H]1O[C@H]([S-])[C@H](O)[C@@H](O)[C@@H]1O.[Au+] [aurothioglucose],pIC50/potency lower than auranofin,[1]; relative to ester prodrug auranofin,10 fold
C=CCN1CCc2c(cc(O)c(O)c2Cl)C(c2ccccc2)C1 (stereo not drawn) [chloro-APB],activity / hit status in cellular P6 screen,[1],active in the cellular screen
same,activity in enzymatic (cell-free) TrxR screen,[3],inactivity in the enzymatic assay
COC[C@H]1OC(=O)c2coc3c2[C@@]1(C)C1=C(C3=O)[C@@H]2CCC(=O)[C@@]2(C)C[C@H]1OC(C)=O [wortmannin],activity in enzymatic (cell-free) TrxR screen,[3],activity in the enzymatic screen
